Legend:
[1] = target: T1, G12C-mutant human KRAS (amino acid residues 1-188) (Homo sapiens, UniProt P01116, G12C); assay: KRAS Binding Disruption Assay (AlphaScreen; biotinylated KRpep-2d analogue or RAF1-RBD), G12C; details: geometric mean, read-out: KRAS GMean IC50 (uM) MUTATION: G12C
T1 construct: G12D or G12C-mutant human KRAS (amino acid residues 1-188) with FLAG tag; made in house; host or cells: E. coli
Procedure: Compound binding disrupts the interaction of KRpep-2d or RAF1-RBD with KRAS, leading to a decrease in Alpha signal.
All assay components were prepared in 20 mM HEPES (pH 7.5), 100 mM NaCl, 5 mM MgCl2, 0.01% Tween-20, and 0.01% BSA. Biotinylated analogues of KRpep-2d were custom synthesized. The binding disruption assays were performed using 5-20 nM of mutant KRAS and 5-20 nM of either biotinylated KRpep-2d analogue or RAF1-RBD. 19 μL of KRAS protein and 4 μL of biotinylated KRpep-2d or RAF1-RBD were added to the wells of a 384-well plate containing 1 μL of various concentrations of test compound or DMSO vehicle. 16 wells containing KRAS, biotinylated KRpep-2d or RAF1-RBD, and 5% DMSO served as high controls. 16 wells containing KRAS only and 5% DMSO served as low controls. Binding reactions were incubated for 1 hour at 25° C., then Anti-Flag Acceptor and Streptavidin Donor Alpha beads were added at a final concentration of 10 μg/mL for an additional hour at room temperature. Alpha signal was read out on a Perkin Elmer Envision HTS instrument. The percentage inhibition at individual compound concentrations relative to high and low controls was calculated. The data were analyzed by using nonlinear regression to generate IC50 values.

[2] = target: T2, G12D-mutant human KRAS (amino acid residues 1-188) (Homo sapiens, UniProt P01116, G12D); assay: KRAS Binding Disruption Assay (AlphaScreen; biotinylated KRpep-2d analogue or RAF1-RBD), G12D; details: KRAS G12D; geometric mean; read-out: KRAS GMean IC50 (uM) MUTATION: G12D
T2 construct: G12D or G12C-mutant human KRAS (amino acid residues 1-188) with FLAG tag; made in house; host or cells: E. coli
T2 sequence (P01116 1-188 isoform P01116-2 G12D): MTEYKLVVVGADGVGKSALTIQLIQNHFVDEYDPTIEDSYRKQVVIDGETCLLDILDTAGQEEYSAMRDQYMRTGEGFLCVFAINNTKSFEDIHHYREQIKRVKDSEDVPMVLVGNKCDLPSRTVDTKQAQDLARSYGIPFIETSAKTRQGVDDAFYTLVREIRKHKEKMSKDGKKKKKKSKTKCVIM
In short: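 AlphaScreen readout: signal falls as compound displaces biotinylated KRpep-2d analogue or RAF1-RBD from mutant KRAS. Both partners at 5-20 nM, 1 h binding at 25° C, then 10 μg/mL Anti-Flag acceptor and streptavidin donor beads for 1 h. IC50 by nonlinear regression of % inhibition.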

T1 sequence (P01116 1-188 isoform P01116-2 G12C): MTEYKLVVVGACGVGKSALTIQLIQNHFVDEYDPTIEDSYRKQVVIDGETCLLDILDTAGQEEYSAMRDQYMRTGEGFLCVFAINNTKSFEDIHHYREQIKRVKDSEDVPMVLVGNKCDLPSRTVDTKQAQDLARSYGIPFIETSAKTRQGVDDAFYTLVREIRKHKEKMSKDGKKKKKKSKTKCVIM

IC50 [1] | IC50 [2] | Compound
0.0001 to 10 µM | 0.0001 to 10 µM | Fc1c(-c2c[nH]c3cccc(F)c23)ccc2c(N3C[C@H]4CC[C@@H](C3)N4)nc(OCC34CCCN3CCC4)nc12 [P-0764, 4-((1R,5S)-3,8-diazabicyclo[3.2.1]octan-3-yl)-8-fluoro-7-(4-fluoro-1H-indol-3-yl)-2-((tetrahydro-1H-pyrrolizin-7a(5H)-yl)methoxy)quinazoline]
100 to 1000 µM | 0.0001 to 10 µM | OCC1(CO)CN(c2nc(N3C[C@H]4CC[C@@H](C3)N4)c3ccc(-c4cc(O)cc5ccccc45)c(F)c3n2)C1 [P-0686, (1-(4-((1R,5S)-3,8-diazabicyclo[3.2.1]octan-3-yl)-8-fluoro-7-(3-hydroxynaphthalen-1-yl)quinazolin-2-yl)azetidine-3,3-diyl)dimethanol]
10 to 100 µM | 0.0001 to 10 µM | Oc1cc(-c2ccc3c(N4CC5CCC(C4)N5)nc(OCC4CCCC4O)nc3c2F)c2ccccc2c1 [P-0688, 4-(4-((1R,5S)-3,8-diazabicyclo[3.2.1]octan-3-yl)-8-fluoro-2-((2-hydroxycyclopentyl)methoxy)quinazo-lin-7-yl)naphthalen-2-ol]
10 to 100 µM | 0.0001 to 10 µM | Oc1cc(-c2ccc3c(N4C[C@H]5CC[C@@H](C4)N5)nc(N4CC5(CCCN5)C4)nc3c2F)c2ccccc2c1 [P-0682, 4-(4-((1R,5S)-3,8-diazabicyclo[3.2.1]octan-3-yl)-8-fluoro-2-(2,5-diazaspiro[3.4]octan-2-yl)quinazolin-7-yl)naphthalen-2-ol]
0.0001 to 10 µM | 0.0001 to 10 µM | CN1CCC[C@H]1COc1nc(N2CC3CCCC(C2)N3)c2cc(Cl)c(-c3cc(O)cc4ccccc34)c(F)c2n1 [P-0039, 4-(4-(3,9-diazabicyclo[3.3.1]nonan-3-yl)-6-chloro-8-fluoro-2-(((S)-1-methylpyrrolidin-2-yl)methoxy)quinazolin-7-yl)naphthalen-2-ol]
0.0001 to 10 µM | 0.0001 to 10 µM | CCc1cccc2[nH]cc(-c3c(F)cc4c(N5C[C@H]6CC[C@@H](C5)N6)nc(OCC56CCCN5CCC6)nc4c3F)c12 [P-0731, 4-((1R,5S)-3,8-diazabicyclo[3.2.1]octan-3-yl)-7-(4-ethyl-1H-indol-3-yl)-6,8-difluoro-2-((tetrahydro-1H-pyrrolizin-7a(5H)-yl)methoxy)quinazoline]
0.0001 to 10 µM | 0.0001 to 10 µM | Fc1c(-c2c[nH]c3cccc(C4CC4)c23)ccc2c(N3C[C@H]4CC[C@@H](C3)N4)nc(OCC34CCCN3CCC4)nc12 [P-0697, 4-((1R,5S)-3,8-diazabicyclo[3.2.1]octan-3-yl)-7-(4-cyclopropyl-1H-indol-3-yl)-8-fluoro-2-((tetrahydro-1H-pyrrolizin-7a(5H)-yl)methoxy)quinazoline]
10 to 100 µM | 0.0001 to 10 µM | Oc1cc(-c2ccc3c(N4C[C@H]5CC[C@@H](C4)N5)nc(OCC4CCCOC4)nc3c2F)c2ccccc2c1 (stereo partly drawn) [P-0776, 4-(4-((1R,5S)-3,8-diazabicyclo[3.2.1]octan-3-yl)-8-fluoro-2-((tetrahydro-2H-pyran-3-yl)methoxy)quinazolin-7-yl)naphthalen-2-ol]
0.0001 to 10 µM | 0.0001 to 10 µM | Cc1ccc2[nH]cc(-c3ccc4c(N5C[C@H]6CC[C@@H](C5)N6)nc(OCC56CCCN5CCC6)nc4c3F)c2c1F [P-0646, 4-((1R,5S)-3,8-diazabicyclo[3.2.1]octan-3-yl)-8-fluoro-7-(4-fluoro-5-methyl-1H-indol-3-yl)-2-((tetrahydro-1H-pyrrolizin-7a(5H)-yl)methoxy)quinazoline]
10 to 100 µM | 10 to 100 µM | Cc1ncoc1COc1nc(N2C[C@H]3CC[C@@H](C2)N3)c2ccc(-c3cc(O)cc4ccccc34)c(F)c2n1 [P-0715, 4-(4-((1R,5S)-3,8-diazabicyclo[3.2.1]octan-3-yl)-8-fluoro-2-((4-methyloxazol-5-yl)methoxy)quinazolin-7-yl)naphthalen-2-ol]
0.0001 to 10 µM | 0.0001 to 10 µM | CC(=O)NCCCN1CCCC1COc1nc(N2C[C@H]3CC[C@@H](C2)N3)c2ccc(-c3cc(O)cc4ccccc34)c(F)c2n1 (mixture of isomers) [P-0674, N-(3-((RS)-2-(((4-((1R,5S)-3,8-diazabicyclo[3.2.1]octan-3-yl)-8-fluoro-7-(3-hydroxynaphthalen-1-yl)quinazolin-2-yl)oxy)methyl)pyrrolidin-1-yl)propyl)acetamide]
10 to 100 µM | 0.0001 to 10 µM | CC(C)(O)COc1nc(N2C[C@H]3CC[C@@H](C2)N3)c2ccc(-c3cc(O)cc4ccccc34)c(F)c2n1 [P-0768, 4-(4-((1R,5S)-3,8-diazabicyclo[3.2.1]octan-3-yl)-8-fluoro-2-(2-hydroxy-2-methylpropoxy)quinazolin-7-yl)naphthalen-2-ol]
10 to 100 µM | 0.0001 to 10 µM | Oc1cc(-c2ccc3c(N4C[C@H]5CC[C@@H](C4)N5)nc(OCC4CC4(F)F)nc3c2F)c2ccccc2c1 (stereo partly drawn) [P-0741, 4-(4-((1R,5S)-3,8-diazabicyclo[3.2.1]octan-3-yl)-2-((2,2-difluorocyclopropyl)methoxy)-8-fluoroquinazolin-7-yl)naphthalen-2-ol]
10 to 100 µM | 0.0001 to 10 µM | CN(C)C(C)(C)COc1nc(N2C[C@H]3CC[C@@H](C2)N3)c2ccc(-c3cc(O)cc4ccccc34)c(F)c2n1 [P-0736, 4-(4-((1R,5S)-3,8-diazabicyclo[3.2.1]octan-3-yl)-2-(2-(dimethylamino)-2-methylpropoxy)-8-fluoroquinazolin-7-yl)naphthalen-2-ol]
10 to 100 µM | 0.0001 to 10 µM | O=C1NCCC1COc1nc(N2C[C@H]3CC[C@@H](C2)N3)c2ccc(-c3cc(O)cc4ccccc34)c(F)c2n1 (stereo partly drawn) [P-0767, 3-(((4-((1R,5S)-3,8-diazabicyclo[3.2.1]octan-3-yl)-8-fluoro-7-(3-hydroxynaphthalen-1-yl)quinazolin-2-yl)oxy)methyl)pyrrolidin-2-one]
100 to 1000 µM | 10 to 100 µM | CN1CCC[C@H]1COc1nc(N2C[C@H]3CC[C@@H](C2)N3)c2ccc(-c3nccc4cccc(Cl)c34)c(F)c2n1 [P-0728, 4-((1R,5S)-3,8-diazabicyclo[3.2.1]octan-3-yl)-7-(8-chloroisoquinolin-1-yl)-8-fluoro-2-(((S)-1-methylpyrrolidin-2-yl)methoxy)quinazoline]
10 to 100 µM | 0.0001 to 10 µM | CN(C)C1(CNc2nc(N3C[C@H]4CC[C@@H](C3)N4)c3ccc(-c4cc(O)cc5ccccc45)c(F)c3n2)CCOCC1 [P-0639, 4-(4-((1R,5S)-3,8-diazabicyclo[3.2.1]octan-3-yl)-2-(((4-(dimethylamino)tetrahydro-2H-pyran-4-yl)methyl)amino)-8-fluoroquinazolin-7-yl)naphthalen-2-ol]
10 to 100 µM | 0.0001 to 10 µM | Oc1cc(-c2ccc3c(N4C[C@H]5CC[C@@H](C4)N5)nc(OCc4ncco4)nc3c2F)c2ccccc2c1 [P-0804, 4-(4-((1R,5S)-3,8-diazabicyclo[3.2.1]octan-3-yl)-8-fluoro-2-(oxazol-2-ylmethoxy)quinazolin-7-yl)naphthalen-2-ol]
0.0001 to 10 µM | 0.0001 to 10 µM | CCc1c(F)ccc2[nH]cc(-c3ccc4c(N5C[C@H]6CC[C@@H](C5)N6)nc(OCC56CCCN5CCC6)nc4c3F)c12 [P-0709, 4-((1R,5S)-3,8-diazabicyclo[3.2.1]octan-3-yl)-7-(4-ethyl-5-fluoro-1H-indol-3-yl)-8-fluoro-2-((tetrahydro-1H-pyrrolizin-7a(5H)-yl)methoxy)quinazoline]
10 to 100 µM | 0.0001 to 10 µM | CN1CC2(C1)CN(c1nc(N3C[C@H]4CC[C@@H](C3)N4)c3ccc(-c4cc(O)cc5ccccc45)c(F)c3n1)C2 [P-0643, 4-(4-((1R,5S)-3,8-diazabicyclo[3.2.1]octan-3-yl)-8-fluoro-2-(6-methyl-2,6-diazaspiro[3.3]heptan-2-yl)quinazolin-7-yl)naphthalen-2-ol]
10 to 100 µM | 0.0001 to 10 µM | O=C1CCCN1CCOc1nc(N2C[C@H]3CC[C@@H](C2)N3)c2ccc(-c3cc(O)cc4ccccc34)c(F)c2n1 [P-0693, 1-(2-((4-((1R,5S)-3,8-diazabicyclo[3.2.1]octan-3-yl)-8-fluoro-7-(3-hydroxynaphthalen-1-yl)quinazolin-2-yl)oxy)ethyl)pyrrolidin-2-one]
10 to 100 µM | 0.0001 to 10 µM | CN(C)C1CCN(c2nc(N3C[C@H]4CC[C@@H](C3)N4)c3ccc(-c4cc(O)cc5ccccc45)c(F)c3n2)C1 (stereo partly drawn) [P-0704, 4-(4-((1R,5S)-3,8-diazabicyclo[3.2.1]octan-3-yl)-2-(3-(dimethylamino)pyrrolidin-1-yl)-8-fluoroquinazolin-7-yl)naphthalen-2-ol]

Compound | IC50 [1] | IC50 [2]
CC(C)(O)CCOc1nc(N2C[C@H]3CC[C@@H](C2)N3)c2ccc(-c3cc(O)cc4ccccc34)c(F)c2n1 [P-0656, 4-(4-((1R,5S)-3,8-diazabicyclo[3.2.1]octan-3-yl)-8-fluoro-2-(3-hydroxy-3-methylbutoxy)quinazolin-7-yl)naphthalen-2-ol] | 10 to 100 µM | 0.0001 to 10 µM

From US20230081426A1, “COMPOUNDS AND METHODS FOR KRAS MODULATION AND INDICATIONS THEREFOR” (Plexxikon Inc., priority 2020, published 2023)
